This note sets out measurements from patent publication US20070249620A1, “Urea Derivative” (priority 2004, published 2007).

The term melting point denotes the temperature of the solid-liquid transition.

The compound `CCOP(=O)(Cc1ccc(NC(=O)Nc2ccc(N3CCN(C(=O)Nc4c(C)cccc4Cl)CC3)cc2)cc1)OCC` returned a melting point of 218 to 220 °C. Compound `COc1ccc(Cl)cc1NC(=O)Nc1ccc(N2CCN(C(=O)OC(C)(C)C)CC2)cc1` [Example 1, 4-{4-[3-(5-chloro-2-methoxy-phenyl)-ureido]-phenyl}-piperazine-1-carboxylic acid tert-butyl ester] showed a melting point of 205 °C.

As to `COc1ccc(C)cc1NC(=O)Nc1ccc(N2CCN(C(=O)OC(C)(C)C)CC2)cc1` [Example 2, 4-{4-[3-(2-methoxy-5-methyl-phenyl)-ureido]-phenyl}-piperazine-1-carboxylic acid tert-butyl ester], the melting point was 157 °C. To `CC(C)(C)OC(=O)N1CCN(c2ccc(NC(=O)Nc3cccc(Oc4ccccc4)c3)cc2)CC1` [Example 3, 4-{4-[3-(3-phenoxy-phenyl)-ureido]-phenyl}-piperazine-1-carboxylic acid tert-butyl ester] belongs 172 °C; to `CCOc1ccccc1NC(=O)Nc1ccc(N2CCN(C(=O)OC(C)(C)C)CC2)cc1` [Example 4, 4-{4-[3-(2-ethoxy-phenyl)-ureido]-phenyl}-piperazine-1-carboxylic acid tert-butyl ester], 84 °C. To `CC(C)(C)OC(=O)N1CCN(c2ccc(NC(=O)Nc3ccccc3[N+](=O)[O-])cc2)CC1` [Example 6, 4-{4-[3-(2-nitro-phenyl)-ureido]-phenyl}-piperazine-1-carboxylic acid tert-butyl ester] belongs 207 °C; to `CC(C)(C)OC(=O)N1CCN(c2ccc(NC(=O)Nc3ccccc3Oc3ccccc3)cc2)CC1` [Example 7, 4-{4-[3-(2-phenoxy-phenyl)-ureido]-phenyl}-piperazine-1-carboxylic acid tert-butyl ester], 186 to 187 °C; to `CC(C)(C)OC(=O)N1CCN(c2ccc(NC(=O)Nc3cc(Cl)ccc3Oc3ccccc3)cc2)CC1` [Example 8, 4-{4-[3-(5-chloro-2-phenoxy-phenyl)-ureido]-phenyl}-piperazine-1-carboxylic acid tert-butyl ester], 94 to 96 °C. To `CC(C)(C)OC(=O)N1CCN(c2ccc(NC(=O)Nc3ccccc3OC(F)F)cc2)CC1` [Example 9, 4-{4-[3-(2-difluoromethoxy-phenyl)-ureido]-phenyl}-piperazine-1-carboxylic acid tert-butyl ester] belongs 154 to 155 °C. On to `CC(C)(C)OC(=O)N1CCN(c2ccc(NC(=O)Nc3cc(Cl)ccc3[N+](=O)[O-])cc2)CC1` [Example 10, 4-{4-[3-(5-chloro-2-nitro-phenyl)-ureido]-phenyl}-piperazine-1-carboxylic acid tert-butyl ester], for which the melting point came out at 205 °C. To `CC(C)(C)OC(=O)N1CCN(c2ccc(NC(=O)Nc3cc(Cl)ccc3N)cc2)CC1` [Example 11, 4-{4-[3-(2-amino-5-chloro-phenyl)-ureido]-phenyl}-piperazine-1-carboxylic acid tert-butyl ester] belongs 187 to 189 °C; to `CC(C)(C)OC(=O)N1CCN(c2ccc(NC(=O)Nc3cc(Cl)ccc3NS(C)(=O)=O)cc2)CC1` [Example 12, 4-{4-[3-(5-chloro-2-methanesulfonylamino-phenyl)-ureido]-phenyl}-piperazine-1-carboxylic acid tert-butyl ester], 127 °C. `COc1ccccc1NC(=O)Nc1ccc(N2CCN(C(=O)OC(C)(C)C)CC2)cc1` [Example 13, 4-{4-[3-(2-methoxy-phenyl)-ureido]-phenyl}-piperazine-1-carboxylic acid tert-butyl ester] showed a melting point of 184 °C. On to `CC(C)(C)OC(=O)N1CCN(c2ccc(NC(=O)Nc3ccccc3F)cc2)CC1` [Example 14, 4-{4-[3-(2-fluoro-phenyl)-ureido]-phenyl}-piperazine-1-carboxylic acid tert-butyl ester], for which the melting point lay in the range of 164 to 166 °C. With `CC(C)(C)OC(=O)N1CCN(c2ccc(NC(=O)Nc3ccccc3Cl)cc2)CC1` [Example 15, 4-{4-[3-(2-chloro-phenyl)-ureido]-phenyl}-piperazine-1-carboxylic acid tert-butyl ester], the melting point lay within 196 to 197 °C.

Consider `Cc1ccccc1NC(=O)Nc1ccc(N2CCN(C(=O)OC(C)(C)C)CC2)cc1` [Example 16, 4-[4-(3-o-tolyl-ureido)-phenyl]-piperazine-1-carboxylic acid tert-butyl ester], for which the melting point fell in the range of 188 to 191 °C. To `CCc1ccccc1NC(=O)Nc1ccc(N2CCN(C(=O)OC(C)(C)C)CC2)cc1` [Example 17, 4-{4-[3-(2-ethyl-phenyl)-ureido]-phenyl}-piperazine-1-carboxylic acid tert-butyl ester] belongs 162 °C; to `CCCc1ccccc1NC(=O)Nc1ccc(N2CCN(C(=O)OC(C)(C)C)CC2)cc1` [Example 18, 4-{4-[3-(2-propyl-phenyl)-ureido]-phenyl}-piperazine-1-carboxylic acid tert-butyl ester], 177 to 181 °C; to `Cc1ccc(C)c(NC(=O)Nc2ccc(N3CCN(C(=O)OC(C)(C)C)CC3)cc2)c1` [Example 19, 4-{4-[3-(2,5-dimethyl-phenyl)-ureido]-phenyl}-piperazine-1-carboxylic acid tert-butyl ester], 219 to 220 °C. Consider `CN(C)c1ccc(NC(=O)Nc2ccc(N3CCN(C(=O)OC(C)(C)C)CC3)cc2)cc1` [Example 20, 4-{4-[3-(4-dimethylamino-phenyl)-ureido]-phenyl}-piperazine-1-carboxylic acid tert-butyl ester], for which the melting point worked out at 207 °C. To `CCC(C)c1ccccc1NC(=O)Nc1ccc(N2CCN(C(=O)OC(C)(C)C)CC2)cc1` (centres unmarked) [Example 21, 4-{4-[3-(2-sec-butyl-phenyl)-ureido]-phenyl}-piperazine-1-carboxylic acid tert-butyl ester] belongs 177 °C; to `CCOc1ccc(NC(=O)Nc2ccc(N3CCN(C(=O)OC(C)(C)C)CC3)cc2)cc1` [Example 23, 4-{4-[3-(4-ethoxy-phenyl)-ureido]-phenyl}-piperazine-1-carboxylic acid tert-butyl ester], 198 to 200 °C.

`CCc1ccc(NC(=O)Nc2ccc(N3CCN(C(=O)OC(C)(C)C)CC3)cc2)cc1` [Example 24, 4-{4-[3-(4-ethyl-phenyl)-ureido]-phenyl}-piperazine-1-carboxylic acid tert-butyl ester] came in with a melting point of 204 to 205 °C. To `CCC(C)c1ccc(NC(=O)Nc2ccc(N3CCN(C(=O)OC(C)(C)C)CC3)cc2)cc1` (centres unmarked) [Example 25, 4-{4-[3-(4-sec-butyl-phenyl)-ureido]-phenyl}-piperazine-1-carboxylic acid tert-butyl ester] belongs 201 to 202 °C; to `CCCCOc1ccc(NC(=O)Nc2ccc(N3CCN(C(=O)OC(C)(C)C)CC3)cc2)cc1` [Example 26, 4-{4-[3-(4-butoxy-phenyl)-ureido]-phenyl}-piperazine-1-carboxylic acid tert-butyl ester], 185 to 188 °C. To `CC(C)(C)OC(=O)N1CCN(c2ccc(NC(=O)Nc3cc(C(F)(F)F)ccc3F)cc2)CC1` [Example 27, 4-{4-[3-(2-fluoro-5-trifluoromethyl-phenyl)-ureido]-phenyl}-piperazine-1-carboxylic acid tert-butyl ester] belongs 241 °C; to `CC(C)(C)OC(=O)N1CCN(c2ccc(NC(=O)Nc3cc(C(F)(F)F)ccc3Cl)cc2)CC1` [Example 28, 4-{4-[3-(2-chloro-5-trifluoromethyl-phenyl)-ureido]-phenyl}-piperazine-1-carboxylic acid tert-butyl ester], 221 to 223 °C; to `Cc1ccc(Cl)c(NC(=O)Nc2ccc(N3CCN(C(=O)OC(C)(C)C)CC3)cc2)c1` [Example 29, 4-{4-[3-(2-chloro-5-methyl-phenyl)-ureido]-phenyl}-piperazine-1-carboxylic acid tert-butyl ester], 222 to 224 °C.

With `CCc1cccc(NC(=O)Nc2ccc(N3CCN(C(=O)OC(C)(C)C)CC3)cc2)c1` [Example 30, 4-{4-[3-(3-ethyl-phenyl)-ureido]-phenyl}-piperazine-1-carboxylic acid tert-butyl ester], the melting point amounted to 160 °C. To `Cc1cccc(NC(=O)Nc2ccc(N3CCN(C(=O)OC(C)(C)C)CC3)cc2)c1` [Example 31, 4-[4-(3-m-tolyl-ureido)-phenyl]-piperazine-1-carboxylic acid tert-butyl ester] belongs 169 to 172 °C.

`CC(C)(C)OC(=O)N1CCN(c2ccc(NC(=O)Nc3cccc(Cl)c3)cc2)CC1` [Example 32, 4-{4-[3-(3-chloro-phenyl)-ureido]-phenyl}-piperazine-1-carboxylic acid tert-butyl ester] returned a melting point of 163 °C. In the case of `CCCCc1ccc(NC(=O)Nc2ccc(N3CCN(C(=O)OC(C)(C)C)CC3)cc2)cc1` [Example 34, 4-{4-[3-(4-butyl-phenyl)-ureido]-phenyl}-piperazine-1-carboxylic acid tert-butyl ester], the melting point was in the range of 167 to 170 °C. To `Cc1ccc(F)cc1NC(=O)Nc1ccc(N2CCN(C(=O)OC(C)(C)C)CC2)cc1` [Example 36, 4-{4-[3-(5-fluoro-2-methyl-phenyl)-ureido]-phenyl}-piperazine-1-carboxylic acid tert-butyl ester] belongs 206 to 208 °C; to `COc1ccc(C)cc1NC(=O)Nc1ccc(N2CCN(C(=O)OC(C)(C)C)CC2)nc1` [Example 38, 4-{5-[3-(2-methoxy-5-methyl-phenyl)-ureido]-pyridin-2-yl}-piperazine-1-carboxylic acid tert-butyl ester], 185 to 186 °C; to `CCOc1ccc(C)cc1NC(=O)Nc1ccc(N2CCN(C(=O)OC(C)(C)C)CC2)cc1` [Example 41, 4-{4-[3-(2-ethoxy-5-methyl-phenyl)-ureido]-phenyl}-piperazine-1-carboxylic acid tert-butyl ester], 105 to 107 °C.
